According to patent US20210139517A1, “BICYCLIC HETEROARYL COMPOUNDS AND USES THEREOF” (Revolution Medicines, Inc., priority 2019, published 2021):
Read-outs that look alike come from different tables or passages of the source.

Columns and labels:
[1] = target: T1, SOS1 catalytic domain (residues 564-1049) (Homo sapiens, UniProt Q07889); experiment: SOS1 SPR binding affinity assay (Biacore 8K)
T1 sequence (Q07889 564-1049): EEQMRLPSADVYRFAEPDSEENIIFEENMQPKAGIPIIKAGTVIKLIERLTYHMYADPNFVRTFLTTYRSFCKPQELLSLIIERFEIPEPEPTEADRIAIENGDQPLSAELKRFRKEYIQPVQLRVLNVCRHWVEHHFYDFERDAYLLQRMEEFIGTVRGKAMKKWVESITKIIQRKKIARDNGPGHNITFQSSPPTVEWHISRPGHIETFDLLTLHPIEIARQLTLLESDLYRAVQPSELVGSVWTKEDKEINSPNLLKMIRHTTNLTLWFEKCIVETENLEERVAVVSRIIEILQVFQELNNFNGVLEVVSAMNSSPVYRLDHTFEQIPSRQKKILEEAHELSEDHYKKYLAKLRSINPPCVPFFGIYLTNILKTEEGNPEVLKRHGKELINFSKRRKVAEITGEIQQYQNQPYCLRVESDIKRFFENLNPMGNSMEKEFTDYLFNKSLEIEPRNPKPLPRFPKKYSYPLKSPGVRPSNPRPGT

[2] = target: T2, SOS1 nucleotide exchange of wild-type KRAS (SOS1 catalytic domain residues 564-1049; KRAS residue 1-169) (Homo sapiens, UniProt Q07889); experiment: Inhibition of SOS1 nucleotide exchange activity of KRAS (TR-FRET); format: biochemical
T2 sequence (Q07889 564-1049): T1 sequence (Q07889 564-1049)

[3] = system: SOS1 function in cells: cellular pERK in PC-9 cells (EGFR Ex19Del); experiment: pERK potency assay in PC-9 cells (AlphaLISA SureFire Ultra p-ERK1/2); format: cell-based; settings: 1 hour incubation
Procedure: The purpose of this assay is tomeasure the ability of test compounds to inhibit SOS1 function in cells. SOS1 activates RAS proteins by catalyzing the conversion of RAS-GDP to RAS-GTP in response to receptor tyrosine kinase activation. […] The procedure described below measures the level of cellular pERK in response to test compounds in PC-9 cells (EGFR Ex19Del).
PC-9 cells were grown and maintained using media and procedures recommended by the ATCC. On the day prior to compound addition, cells were plated in 384-well cell culture plates (40 μL/well) and grown overnight in a 37° C., 5% CO2 incubator. Test compounds were prepared in 10, 3-fold dilutions in DMSO, with a top concentration of 10 mM. On the day of the assay, 40 nL of test compound was added to each well of cell culture plate using an Echo550 liquid handler (LabCyte). Concentrations of test compound were tested in duplicate with highest test concentration being 10 μM. After compound addition, cells were incubated for 1 hour at 37° C., 5% CO2. Following incubation, culture medium was removed and cells were washed once with phosphate buffered saline.
Cellular pERK level was determined using the AlphaLISA SureFire Ultra p-ERK1/2 Assay Kit (PerkinElmer). Cells were lysed in 25 μL lysis buffer, with shaking at 600 RPM at room temperature for 15 minutes. Lysate (10 μL) was transferred to a 384-well Opti-plate (PerkinElmer) and 5 μL acceptor mix was added. The plate was centrifuged at 1000 RPM for 1 minute, and incubated in the dark for 2 hours. Following this incubation, 5 μL of donor mix was added, the plate was sealed and centrifuged at 1000 RPM for 1 minute, and the mixture was incubated for 2 hours at room temperature. Signal was read on an Envision plate reader (PerkinElmer) using standard AlphaLISA settings. Analysis of raw data was carried out in Excel (Microsoft) and Prism (GraphPad). Signal was plotted vs. the decadal logarithm of compound concentration, and IC50 was determined by fitting a 4-parameter sigmoidal concentration response model.

[4] = avi-tagged SOS1 catalytic domain immobilized on streptavidin chip, equilibrium 1:1 binding fit, read-out: SOS1 SPR Equilibrium Kd
[5] = SOS1 nucleotide exchange of wild-type KRAS, three replicates, four-parameter logistic fit, read-out: TR-FRET IC50

SMILES | Kd [1, 4] [nM] | IC50 [2, 5] [nM] | other results
C[C@@H](Nc1ncnc2c1cc(N1CCOCC1)c(=O)n2C)c1cccc(C(F)(F)CO)c1 [Example 2, (R)-4-((1-(3-(1,1-difluoro-2-hydroxyethyl)phenyl)ethyl)amino)-8-methyl-6-morpholinopyrido[2,3-d]pyrimidin-7(8H)-one] | 7.36 | 12.9 | –
Cc1nc(N[C@H](C)c2cccc(C(F)(F)CO)c2)c2cc(C3=CCOCC3)c(=O)n(C)c2n1 [Example 3, (R)-4-((1-(3-(1,1-difluoro-2-hydroxyethyl)phenyl)ethyl)amino)-6-(3,6-dihydro-2H-pyran-4-yl)-2,8-dimethylpyrido[2,3-d]pyrimidin-7(8H)-one] | 21.8 | 34.9 | –
Cc1nc(N[C@H](C)c2cccc(C(F)(F)CO)c2)c2cc(C3=CCNCC3)c(=O)n(C)c2n1 [Example 4, (R)-4-((1-(3-(1,1-difluoro-2-hydroxyethyl)phenyl)ethyl)amino)-2,8-dimethyl-6-(1,2,3,6-tetrahydropyridin-4-yl)pyrido[2,3-d]pyrimidin-7(8H)-one] | – | – | Kd [1]: 7.97 nM; IC50 [2]: 10.8 nM
C[C@@H](Nc1ncnc2c1cc(C1=CCOCC1)c(=O)n2C)c1cccc(C(F)(F)F)c1 [Example 5, (R)-6-(3,6-dihydro-2H-pyran-4-yl)-8-methyl-4-((1-(3-(trifluoromethyl)phenyl)ethyl)amino)pyrido[2,3-d]pyrimidin-7(8H)-one] | – | 113 | –
Cc1nc(N[C@H](C)c2cc(N)cc(C(F)(F)F)c2)c2cc(C3=CCOCC3)c(=O)n(C)c2n1 [Example 7, (R)-4-((1-(3-amino-5-(trifluoromethyl)phenyl)ethyl)amino)-6-(3,6-dihydro-2H-pyran-4-yl)-2,8-dimethylpyrido[2,3-d]pyrimidin-7(8H)-one] | 117 | 155 | –
Cc1nc(N[C@H](C)c2cc(N)cc(C(F)(F)F)c2)c2cc(C3CCNCC3)c(=O)[nH]c2n1 [Example 8, (R)-4-((1-(3-amino-5-(trifluoromethyl)phenyl)ethyl)amino)-2-methyl-6-(piperidin-4-yl)pyrido[2,3-d]pyrimidin-7(8H)-one] | – | 22.2 | –
Cc1nc(N[C@H](C)c2cccc(C(F)(F)F)c2)c2cc(N3CCOCC3)c(=O)n(C)c2n1 [Example 10, 2,8-dimethyl-6-(morpolin-4-yl)-4-[[(1R)-1-[3-(trifluoromethyl)phenyl]ethyl]amino]-7H,8H-pyrido[2,3-d]pyrimidin-7-one] | – | 178 | IC50 ([3]; Homo sapiens, PC-9, 1 h): 787 nM
C[C@@H](Nc1ncnc2c1cc(N1CCOCC1)c(=O)n2C1CC1)c1cccc(C(F)(F)F)c1 [Example 11, 8-cyclopropyl-6-(morpholin-4-yl)-4-{[(1R)-1-[3-(trifluoromethyl)phenyl]ethyl]amino}-7H,8H-pyrido[2,3-d]pyrimidin-7-one] | – | 32.8 | IC50 ([3]; Homo sapiens, PC-9, 1 h): 292 nM
C[C@@H](Nc1ncnc2c1cc(C1=CC[S+]([O-])CC1)c(=O)n2C)c1cccc(C(F)F)c1F (stereo partly drawn) [Example 22, 4-(((R)-1-(3-(difluoromethyl)-2-fluorophenyl)ethyl)amino)-8-methyl-6-(1-oxido-3,6-dihydro-2H-thiopyran-4-yl)pyrido[2,3-d]pyrimidin-7(8H)-one] | 34.2 | 298 | –
C[C@@H](Nc1ncnc2c1cc(C1=CCS(=N)(=O)CC1)c(=O)n2C)c1cccc(C(F)F)c1F (stereo partly drawn) [Example 23, 4-(((R)-1-(3-(difluoromethyl)-2-fluorophenyl)ethyl)amino)-6-(1-imino-1-oxido-1,2,3,6-tetrahydro-1λ^6-thiopyran-4-yl)-8-methylpyrido[2,3-d]pyrimidin-7(8H)-one] | 19.8 | 20.9 | –
CN=S1(=O)CC=C(c2cc3c(N[C@H](C)c4cccc(C(F)F)c4F)ncnc3n(C)c2=O)CC1 (stereo partly drawn) [Example 24, 4-(((R)-1-(3-(difluoromethyl)-2-fluorophenyl)ethyl)amino)-8-methyl-6-(1-(methylimino)-1-oxido-1,2,3,6-tetrahydro-1λ^6-thiopyran-4-yl)pyrido[2,3-d]pyrimidin-7(8H)-one] | – | 13.5 | –
C[C@@H](Nc1ncnc2c1cc(C1CC[S+]([O-])CC1)c(=O)n2C)c1cccc(C(F)F)c1F (stereo partly drawn) [Example 25, (R)-4-((1-(3-(difluoromethyl)-2-fluorophenyl)ethyl)amino)-8-methyl-6-(1-oxidotetrahydro-2H-thiopyran-4-yl)pyrido[2,3-d]pyrimidin-7(8H)-one] | 19.4 | 15.9 | –
Cc1nc(N[C@H](C)c2cccc(C(F)F)c2F)c2cc(C(=O)N3CCOCC3)c(=O)n(C)c2n1 [Example 26, 4-{[(1R)-1-[3-(difluoromethyl)-2-fluorophenyl]ethyl]amino}-2,8-dimethyl-6-(morpholine-4-carbonyl)-7H,8H-pyrido[2,3-d]pyrimidin-7-one] | 115 | 70.2 | –
C[C@@H](Nc1ncnc2c1cc(C(=O)N1CC3CCC1CO3)c(=O)n2C)c1cccc(C(F)F)c1F (stereo partly drawn) [Example 26-18] | 150 | 78.6 | –
C[C@@H](Nc1ncnc2c1cc(C(=O)N1CC3CCC(C1)O3)c(=O)n2C)c1cccc(C(F)F)c1F [Example 26-19] | 148 | 65.4 | –
Cc1nc(N[C@H](C)c2cccc(C(F)F)c2F)c2cc(CN3CCOCC3)c(=O)n(C)c2n1 [Example 27, 4-{[(1R)-1-[3-(difluoromethyl)-2-fluorophenyl]ethyl]amino}-2,8-dimethyl-6-[(morpholin-4-yl)meth-yl]-7H,8H-pyrido[2,3-d]pyrimidin-7-one] | 550 | 192 | –
C[C@@H](Nc1ncnc2c1cc(C1(O)CCS(=O)(=O)CC1)c(=O)n2C)c1cccc(C(F)F)c1F [Example 28, 4-(4-{[(1R)-1-[3-(difluoromethyl)-2-fluorophenyl]-ethyl]amino}-8-methyl-7-oxo-7H,8H-pyrido[2,3-d]pyrimidin-6-yl)-4-hydroxy-1λ^6-thiane-1,1-dione] | 45.1 | 20.6 | –
C[C@@H](Nc1ncnc2c1cc(C1(F)CCS(=O)(=O)CC1)c(=O)n2C)c1cccc(C(F)F)c1F [Example 29, 4-(4-{[(1R)-1-[3-(difluoromethyl)-2-fluorophenyl]ethyl]amino}-8-methyl-7-oxo-7H,8H-pyrido[2,3-d]-pyrimidin-6-yl)-4-fluoro-1λ^6-thiane-1,1-dione] | 36 | 50.1 | –
C[C@@H](Nc1ncnc2c1cc(Sc1ccccc1)c(=O)n2C)c1cccc(C(F)F)c1F [Example 30, 4-{[(1R)-1-[3-(difluoromethyl)-2-fluorophenyl]ethyl]amino}-8-methyl-6-(phenylsulfanyl)-7H,8H-pyrido[2,3-d]pyrimidin-7-one] | – | 10900 | –
COC1(c2cc3c(N[C@H](C)c4cccc(C(F)F)c4F)ncnc3n(C)c2=O)CCS(=O)(=O)CC1 [Example 32, 4-(4-{[(1R)-1-[3-(difluoro-methyl)-2-fluorophenyl]ethyl]amino}-8-methyl-7-oxo-7H,8H-pyrido[2,3-d]pyrimidin-6-yl)-4-methoxy-1λ^6-thiane-1,1-dione] | 39.6 | – | –
COC1(c2cc3c(N[C@H](C)c4cccc(C(F)F)c4F)ncnc3n(C)c2=O)CCN(C(C)=O)[C@H]1C (stereo partly drawn) [Example 32-100] | – | – | IC50 [3]: 200 nM
COC1(c2cc3c(N[C@H](C)c4cccc(C(F)F)c4F)ncnc3n(C)c2=O)CCN(C(C)=O)[C@@H]1C (stereo partly drawn) [Example 32-101] | – | – | IC50 [3]: 348 nM
C[C@@H](Nc1ncnc2c1cc(C1(C#N)CCN(C)CC1)c(=O)n2C)c1cccc(C(F)F)c1F [Example 36-2] | – | – | IC50 [3]: 63 nM
CC(=O)N1CC2CC2(c2cc3c(N[C@H](C)c4cccc(C(F)F)c4F)ncnc3n(C)c2=O)C1 (stereo partly drawn) [Example 54, 6-{3-acetyl-3-azabicyclo[3.1.0]hexan-1-yl}-4-{[(1R)-1-[3-(difluoromethyl)-2-fluorophenyl]ethyl]amino}-8-methyl-7H,8H-pyrido[2,3-d]pyrimidin-7-one] | – | – | IC50 ([3]; Homo sapiens, PC-9, 1 h): 46.3 nM
